Source: US7253281B2, “Anti-obesity 1,2,3,4,10,10a-hexahydropyrazino[1,2-a]indoles” (Hoffmann-La Roche Inc., priority 2000, dated 2007)

How the values were obtained:
[1] = target: T1, human 5-HT2B receptors in a CHO cell line (Homo sapiens, UniProt P41595); test: Binding to 5-HT2B receptor, [3H]-5-HT, Method (b); details: read-out: Ki (2B)
T1 construct: expressed in transfected cells; host or cells: CHO cell line
Protocol: (§1) The binding of compounds of formula (I) to serotonin receptors was determined in vitro by standard methods. The preparations were investigated in accordance with the assays given hereinafter.
Method (b): For the binding to the 5-HT2B receptor the 5-HT2B receptors were radiolabeled with [^3H]-5-HT. The affinity of the compounds for human 5-HT2B receptors in a CHO cell line was determined according to the procedure of K. Schmuck, C. Ullmer, P. Engels and H. Lubbert, FEBS Lett., 1994, 342, 85–90.

[2] = target: T2, 5-HT2C receptors in a CHO cell line (Homo sapiens, UniProt P28335); test: Binding to 5-HT2C receptor, [3H]-5-HT, Method (a); details: read-out: Ki (2C)
T2 construct: expressed in transfected cells; host or cells: CHO cell line
T2 sequence (P28335 33-458): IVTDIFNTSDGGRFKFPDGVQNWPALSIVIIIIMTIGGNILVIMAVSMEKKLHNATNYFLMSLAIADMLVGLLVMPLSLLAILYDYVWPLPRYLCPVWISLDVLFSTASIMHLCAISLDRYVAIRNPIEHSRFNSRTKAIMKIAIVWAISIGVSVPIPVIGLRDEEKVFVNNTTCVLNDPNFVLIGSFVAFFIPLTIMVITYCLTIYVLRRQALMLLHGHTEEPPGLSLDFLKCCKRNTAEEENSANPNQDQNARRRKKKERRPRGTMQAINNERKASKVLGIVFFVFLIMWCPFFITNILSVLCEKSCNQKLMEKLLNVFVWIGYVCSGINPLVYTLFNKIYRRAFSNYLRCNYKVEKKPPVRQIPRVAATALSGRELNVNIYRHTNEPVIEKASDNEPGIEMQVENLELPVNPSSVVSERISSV
Protocol: as §1
Method (a): For the binding to the 5-HT2C receptor the 5-HT2C receptors were radiolabeled with [^3H]-5-HT. The affinity of the compounds for 5-HT2C receptors in a CHO cell line was determined according to the procedure of D. Hoyer, G. Engel and H. O. Kalkman, European J. Pharmacol., 1985, 118, 13–23.

[3] = target: T3, 5-HT2A receptors in a CHO cell line (Homo sapiens, UniProt P28223); test: Binding to 5-HT2A receptor, [125I]-DOI, Method (c); details: read-out: Ki (2A)
T3 construct: expressed in transfected cells; host or cells: CHO cell line
Protocol: as §1
Method (c): For the binding to the 5-HT2A receptor the 5-HT2A receptors were radiolabeled with [^125I]-DOI. The affinity of the compounds for 5-HT2A receptors in a CHO cell line was determined according to the procedure of D. J. McKenna and S. J. Peroutka, J. Neurosci., 1989, 9, 3482–90.

[4] = target: T4, human 5-HT2C receptor (CHO cells) (Homo sapiens, UniProt P28335); test: Functional activity, FLIPR calcium assay, h5-HT2C; type: cell-based
T4 construct: expressed in transfected cells; host or cells: CHO cells
T4 sequence (P28335 33-458): T2 sequence (P28335 33-458)
Protocol: (§2) The functional activity of compounds of formula (I) was assayed using a Fluorimetric Imaging Plate reader (FLIPR). CHO cells expressing the human 5-HT2C or human 5-HT2A receptors were counted and plated into standard 96 well microtitre plates on the day before testing to give a confluent monolayer. The cells were then dye loaded with the calcium sensitive dye, Fluo-3-AM. Unincorporated dye was removed using an automated cell washer to leave a total volume of 100 μL/well of assay buffer (Hanks balanced salt solution containing 20 mM Hepes and 2.5 mM probenecid). The drug (dissolved in 50 μL of the assay buffer) was added at a rate of 70 μL/sec to each well of the FLIPR 96 well plate during fluorescence measurements. The measurements were taken at 1 sec intervals and the maximum fluorescent signal was measured (approx 10–15 secs after drug addition) and compared with the response produced by 10 μM 5-HT (defined as 100%) to which it was expressed as a percentage response (relative efficacy). Dose response curves were constructed using Graphpad Prism (Graph Software Inc.).

[5] = target: T5, human 5-HT2A receptor (CHO cells) (Homo sapiens, UniProt P28223); test: Functional activity, FLIPR calcium assay, h5-HT2A; type: cell-based
T5 construct: expressed in transfected cells; host or cells: CHO cells
Protocol: as §2

h5-HT2B = h5-HT2B (Homo sapiens, UniProt P41595); test: Functional activity, FLIPR calcium assay, h5-HT2B; type: cell-based
[6] = relative to response of 10 μM 5-HT (100%)

T5 sequence (P28223 whole entry): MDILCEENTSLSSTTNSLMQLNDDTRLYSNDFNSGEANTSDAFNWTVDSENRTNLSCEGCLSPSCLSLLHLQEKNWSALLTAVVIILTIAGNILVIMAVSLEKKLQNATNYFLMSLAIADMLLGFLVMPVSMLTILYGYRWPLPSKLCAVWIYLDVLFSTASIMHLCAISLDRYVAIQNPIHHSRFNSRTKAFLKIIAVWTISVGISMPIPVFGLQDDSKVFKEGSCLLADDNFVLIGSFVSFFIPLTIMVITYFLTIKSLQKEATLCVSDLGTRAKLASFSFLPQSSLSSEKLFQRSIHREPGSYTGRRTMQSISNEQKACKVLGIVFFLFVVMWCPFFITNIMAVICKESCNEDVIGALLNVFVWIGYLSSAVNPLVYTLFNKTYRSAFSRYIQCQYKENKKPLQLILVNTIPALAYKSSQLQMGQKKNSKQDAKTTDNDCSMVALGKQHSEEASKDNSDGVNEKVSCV
Sequence of h5-HT2B (P41595 whole entry): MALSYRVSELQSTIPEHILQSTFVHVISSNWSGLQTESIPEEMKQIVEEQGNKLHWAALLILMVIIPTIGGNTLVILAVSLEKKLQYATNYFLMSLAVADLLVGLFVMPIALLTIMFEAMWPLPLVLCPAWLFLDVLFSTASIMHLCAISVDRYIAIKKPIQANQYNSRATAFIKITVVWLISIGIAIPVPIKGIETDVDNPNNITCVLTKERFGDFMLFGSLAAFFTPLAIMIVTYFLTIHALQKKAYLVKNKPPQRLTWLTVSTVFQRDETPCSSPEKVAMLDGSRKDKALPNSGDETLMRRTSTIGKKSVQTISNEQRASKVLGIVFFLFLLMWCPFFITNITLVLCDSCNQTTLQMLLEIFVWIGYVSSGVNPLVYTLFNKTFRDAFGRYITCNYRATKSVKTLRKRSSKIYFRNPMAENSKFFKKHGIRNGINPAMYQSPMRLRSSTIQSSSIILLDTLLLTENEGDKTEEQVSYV
T3 sequence (P28223 whole entry): as the sequence (P28223 whole entry) above
T1 sequence (P41595 whole entry): as the sequence (P41595 whole entry) above

C[C@@H]1CNC[C@H]2Cc3ccc(C(F)(F)F)cc3N21.Cl
melting point: 221 to 224 °C

C[C@@H]1CNC[C@@H]2Cc3ccc(C(F)(F)F)cc3N21.Cl
melting point: 245 to 250 °C (dec.)

Cc1cc2c(cc1C(F)(F)F)N1[C@H](CNC[C@H]1C)C2.Cl
melting point: 200 to 205 °C

CC(=O)Nc1ccc2c(c1)N1[C@@H](CNC[C@H]1C)C2.Cl
melting point: > 250 °C (dec.)

C[C@@H]1CNC[C@H]2Cc3ccc(CO)cc3N21.Cl
melting point: 66 °C (dec.)

CCCCNC(=O)c1ccc2c(c1)N1[C@@H](CNC[C@H]1C)C2.Cl
melting point: 125 °C (dec.)

O=C1OCCN1CN1CCN2c3cccc(Br)c3C[C@@H]2C1 [Example 3, (10aR)-3-(9-Bromo-3,4,10,10a-tetrahydro-1H-pyrazino[1,2-a]indol-2-ylmethyl)-oxazolidin-2-one]
Ki [1]: 110 nM
Ki [2]: 26 nM
Ki [3]: 230 nM

C[C@@H]1CNC[C@H]2Cc3ccc(Cl)cc3N21 [Example 8, (4R,10aR)-7-Chloro-4-methyl-1,2,3,4,10,10a-hexahydro-pyrazino[1,2-a]indole]
EC50 ([4]; FLIPR, CHO cells): 0.4 nM
h5-HT2c Relative Efficacy (%) [4, 6]: 97%
EC50 ([5]; FLIPR, CHO cells): 19 nM
h5-HT2A Relative Efficacy (%) [5, 6]: 60%
EC50 (h5-HT2B; FLIPR): 3.4 nM
h5-HT2B Relative Efficacy (%) (h5-HT2B; [6]): 62%
